Results from patent US8648111B2, “N1-2-thiophene-2-ylethyl-N2-substituted biguanide derivate, preparation method thereof, and pharmaceutical composition containing the same as active ingredients” (Hanall Biopharma Co., Ltd., priority 2008, dated 2014).
“And” between values parts separate entries of the source, which are not always exact repeats. Equal entries are not always repeated.

Assays:
Format in all cases: cell-based
C2C12 cells = experiment: Measurement of glucose absorption ability (3H-deoxy-glucose uptake with insulin); settings: 100 uM compound with 1 μM insulin, 24 hours, differentiated C2C12, higher value = stronger, more than 200% counts as glucose absorption ability
Experimental: (§1) 2 mM metformin was used as a comparative compound for each of the plates (control group).
C2C12 cells (ATCC: American Type Culture Collection), a muscle cell model, were induced to differentiate into muscle cells in 2% bovine fetal serum-containing media (DMEM (Gibco), FBS (Gibco)) for 6 days. The C2C12 cells which differentiated into muscle cells were transferred to serum-free low glucose media (DMEM (Gibco), FBS (Gibco)), treated with 100 μM of each of the compounds, and then cultured with 1 μM of insulin for 24 hours. After cultivation, the cells were treated with 1 μCi ^3H-deoxy-glucose (Amersham Pharmacia) and 10 μM deoxy-glucose (Sigma) at 37° C. for 15 minutes. The media were removed therefrom, and the cells were washed twice with PBS (phosphate buffered saline). The washed cells were treated with 0.1N NaOH and neutralized with 1N HCl. The content of glucose absorbed into the cells was measured with a liquid scintillation counter.
A higher measurement value means a stronger ability to reduce insulin resistance.

HepG2 cells [1] = experiment: Measurement of gluconeogenesis inhibitory ability (14C-lactate, glucose formed in cells); settings: HepG2; for Gluconeogenesis inhibition (100 uM) Aver.: 100 uM compound, 24 hours, lower value = stronger gluconeogenesis inhibition
Experimental: as §1
HepG2 cells (ATCC: American Type Culture Collection) were cultured in 10% serum-containing high glucose media, transferred to no serum-containing low glucose media (DMEM (Gibco), FBS (Gibco)), and then treated with 100 μM of each of the compounds for 24 hours. Then, the cells were treated with 0.5 μCi ^14C-lactate (Amersham Pharmacia) and 10 mM L-lactate (Sigma), and cultured for 4 hours. After cultivation, the media were removed therefrom, and the cells were washed with PBS, treated with 0.1N NaOH and kept at room temperature for 1 hour. Then, the cells were neutralized with 1N HCl, and the content of glucose formed in the cells was measured with a liquid scintillation counter.
A lower measurement value means an increased gluconeogenesis inhibitory ability.

HepG2 cells [2] = experiment: Measurement of triglyceride (triglyceride content in cell lysates, Amplex red); settings: HepG2; for Triglyceride (100 uM) Aver.: 100 uM compound; for Triglyceride (100 uM) Aver. / Triglyceride (500 uM) Aver.: 24 hours, lower value = stronger triglyceride synthesis inhibition; for Triglyceride (500 uM) Aver.: 500 uM compound
Experimental: as §1
HepG2 cells (ATCC: American Type Culture Collection) were cultured in 1% serum-containing media (DMEM (Gibco), FBS (Gibco)) for 24 hours, and then treated with 100 μM or 500 μM of each of the compounds prepared in Examples for 24 hours. Then, the cells were disrupted with a lysis solution (0.1 M potassium phosphate, pH 7.4, 0.05 M NaCl, 5 mM cholic acid, 0.1% Triton X-100). […] After completion of the reaction, the content of triglyceride formed in the cell lysates was measured at a wavelength of 560/590 nm (ex/em) using a fluorescence microscope.
A lower measurement value means an increased triglyceride synthesis inhibitory ability.

HepG2 cells [3] = experiment: Measurement of cholesterol synthesis inhibitory ability (cholesterol content in cell lysates, Amplex red); settings: HepG2; for Cholesterol (100 uM) Aver.: 100 uM compound; for Cholesterol (100 uM) Aver. / Cholesterol (500 uM) Aver.: 24 hours, lower value = stronger cholesterol synthesis inhibition; for Cholesterol (500 uM) Aver.: 500 uM compound
Experimental: as §1
A cholesterol synthesis inhibitory ability, which is an important function of AMPK (AMP-activated protein kinase), was measured using HepG2 cells (ATCC: American Type Culture Collection) as a hepatic cell model according to the following procedure.
The hepatic cell model HepG2 cells were cultured in 1% serum-containing media (DMEM (Gibco), FBS (Gibco)) for 24 hours, and then treated with 100 μM or 500 μM of each of the compounds prepared in Examples for 24 hours. Then, the cells were disrupted with a lysis solution (0.1 M potassium phosphate, pH 7.4, 0.05 M NaCl, 5 mM cholic acid, 0.1% Triton X-100 (Sigma)). To the disrupted cells was added the same volume of a reaction solution (2 U/mL of a cholesterol oxidizing agent, 2 U/mL of a peroxidase, 0.2 U/mL of a cholesterol esterase, and 300 μM of Amplex red as a fluorescent factor (Molecular Probe)), which was allowed to react at 37° C. for 30 minutes. After completion of the reaction, the content of cholesterol formed in the cell lysates was measured at a wavelength of 560/590 nm (ex/em) using a fluorescence microscope.
A lower measurement value means an increased cholesterol synthesis inhibitory ability.

[4] = Metformin 2 mM, control group of each plate

Compound | Glucose absorption (100 uM) Aver. (C2C12 cells) | Gluconeogenesis inhibition (100 uM) Aver. (HepG2 cells [1]) | Triglyceride (100 uM) Aver. (HepG2 cells [2]) | Triglyceride (500 uM) Aver. (HepG2 cells [2]) | Cholesterol (100 uM) Aver. (HepG2 cells [3]) | Cholesterol (500 uM) Aver. (HepG2 cells [3]) | also measured
Cc1cccc(N=C(NCCc2cccs2)NC(=N)N)c1.Cl [Example 27, N1-2-(thiophen-2-ylethyl)-N2-(3-methylphenyl) biguanide hydrochloride] | 12.91% | 56.42 | 46.45 | 20.64 | 33.26 | 28.82 | 
CCCCCCc1ccc(N=C(NCCc2cccs2)NC(=N)N)cc1.Cl [Example 29, N1-2-(thiophen-2-ylethyl)-N2-(4-hexylphenyl) biguanide hydrochloride] | 3.96% | 1.26 | 8.04 | 42.57 | 30.10 | 119.39 | 
COc1ccc(CN=C(NCCc2cccs2)NC(=N)N)cc1.Cl [Example 38, N1-2-(thiophen-2-ylethyl)-N2-(4-methoxybenzyl) biguanide hydrochloride] | 195.22% | 120.13 | 100.89 | 84.10 | 80.35 | 44.72 | 
CC(C)N=C(NCCc1cccs1)NC(=N)N.Cl [Example 41, N1-2-(thiophen-2-ylethyl)-N2-isopropyl biguanide hydrochloride] | 150.65% | 97.81 | 93.91 | 81.62 | 87.73 | 75.54 | 
Cl.N=C(N)NC(=Nc1ccc(F)cc1)NCCc1cccs1 [Example 18, N1-2-(thiophen-2-ylethyl)-N2-(4-fluorophenyl) biguanide hydrochloride] | 88.16% | 86.69 | 67.0 | 39.5 | 50.3 | 23.4 | 
Cc1ccc(N=C(NCCc2cccs2)NC(=N)N)cc1.Cl [Example 19, N1-2-(thiophen-2-ylethyl)-N2-(4-methylphenyl) biguanide hydrochloride] | 89.16% | 74.32 | 67.7 | 46.4 | 52.9 | 29.6 | 
CN=C(NCCc1cccs1)NC(=N)N.Cl [Example 11, N1-2-(thiophen-2-ylethyl)-N2-methyl biguanide hydrochloride (isomer)] | 321.21% |  | 74.98 |  | 71.14 |  | Gluconeogenesis inhibition (100 uM) Aver. (HepG2 cells [1]; 100 µM): 25.03
COc1ccc(OC)c(N=C(NCCc2cccs2)NC(=N)N)c1.Cl [Example 16, N1-2-(thiophen-2-ylethyl)-N2-(2,5-dimethoxy)phenyl biguanide hydrochloride] |  |  |  |  |  |  | Glucose absorption (100 uM) Aver. (C2C12 cells; hydrochloride): 147.3%; Gluconeogenesis inhibition (100 uM) Aver. (HepG2 cells [1]; hydrochloride, 100 µM): 68.89; Triglyceride (100 uM) Aver. (HepG2 cells [2]; hydrochloride): 73.8; Triglyceride (500 uM) Aver. (HepG2 cells [2]; hydrochloride): 51.3; Cholesterol (100 uM) Aver. (HepG2 cells [3]; hydrochloride): 85.0; Cholesterol (500 uM) Aver. (HepG2 cells [3]; hydrochloride): 58.5
COc1cc(N=C(NCCc2cccs2)NC(=N)N)cc(OC)c1.Cl [Example 32, N1-2-(thiophen-2-ylethyl)-N2-(3,5-dimethoxyphenyl) biguanide hydrochloride] | 11.68% | 152.19 | 70.80 | 28.47 | 48.02 | 26.70 | 
COc1cc(N=C(NCCc2cccs2)NC(=N)N)cc(OC)c1OC.Cl [Example 17, N1-2-(thiophen-2-ylethyl)-N2-(3,4,5-trimethoxy)phenyl biguanide hydrochloride] | 165.2% | 95.56 | 86.2 | 79.4 | 87.2 | 57.5 | 
Cl.N=C(N)NC(=Nc1cc(Cl)cc(Cl)c1)NCCc1cccs1 [Example 39, N1-2-(thiophen-2-ylethyl)-N2-(3,5-dichlorophenyl) biguanide hydrochloride] | 188.26% | 13.04 | 73.50 | 72.66 | 69.65 | 61.03 | 
CN=C(NCCc1cccs1)NC(=N)N.Cl [Example 12, N1-2-(thiophen-2-ylethyl)-N2-methyl biguanide hydrochloride (isomer)] | 221.61% |  | 67.43 |  | 69.94 |  | Gluconeogenesis inhibition (100 uM) Aver. (HepG2 cells [1]; 100 µM): 13.05
COCCN=C(NCCc1cccs1)NC(=N)N.Cl [Example 24, N1-2-(thiophen-2-ylethyl)-N2-methoxyethyl biguanide hydrochloride] | 114.91% | 78.89 | 77.91 | 71.93 | 92.58 | 75.75 | 
CN(C)C(=N)N=C(N)N [Metformin, reference compound] |  |  |  |  |  |  | Gluconeogenesis inhibition Aver. (HepG2 cells [1]; [4]): 39.79 and 59.14 and 53.09 and 78.33 and 64.50; Triglyceride Aver. (HepG2 cells [2]; [4]): 81.14 and 69.58 and 73.61 and 70.05 and 74.57; Cholesterol Aver. (HepG2 cells [3]; [4]): 65.31 and 74.50 and 85.91 and 70.69 and 73.31
